In patent US20140228286A1, “SPECIFIC PDE4B-INHIBITORS FOR THE TREATMENT OF DIABETES MELLITUS” (BOEHRINGER INGELHEIM INTERNATIONAL GMBH, priority 2013, published 2014):
pIC50: −log10 of the molar value.

Legend:
PDE4B = target: T1, PDE4B (Homo sapiens, UniProt Q07343); assay: PDE4B Scintillation Proximity (SPA) Assay; format: biochemical; settings: PDE4B active site fragment amino acids 152-484; [3H]cAMP; 30° C., one hour; read-out: Experimentally determined IC50-value for PDE4B inhibition
T1 construct: active site fragment comprising the amino acids 152-484
T1 sequence (Q07343 324-656): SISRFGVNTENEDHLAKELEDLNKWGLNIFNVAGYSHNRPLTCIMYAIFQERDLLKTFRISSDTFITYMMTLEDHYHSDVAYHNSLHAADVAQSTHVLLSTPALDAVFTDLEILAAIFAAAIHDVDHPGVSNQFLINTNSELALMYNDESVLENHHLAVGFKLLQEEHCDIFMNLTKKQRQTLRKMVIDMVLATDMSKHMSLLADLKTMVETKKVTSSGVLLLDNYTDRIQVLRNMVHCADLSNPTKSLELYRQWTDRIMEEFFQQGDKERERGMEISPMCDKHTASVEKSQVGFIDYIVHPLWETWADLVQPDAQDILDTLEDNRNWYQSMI
Description: The IC50-values of the compounds of the invention (Examples 1.1 to 1.47) with respect to their PDE4B-inhibiting ability have been determined with a Scintillation Proximity (SPA) Assay (GE Healthcare, No. TRKQ7090). The Scintillation Proximity (SPA) Assay is based on the detection of the different affinities of the cyclic 3′-5′adenosine monophosphate (cAMP, low affinity) and the linear 5′-adenosine monophosphate (AMP, high affinity) to yttrium-silicate-scintillator beads. The cAMP-specific phosphodiesterase (PDE) PDE4B cleaves the 3′-phosphodiester bond of the tritium-labelled-[^3H]cAMP to the [^3H]5′-AMP. This [^3H]5′-AMP associates with the scintillator beads because of their higher affinity and causes scintillations (light flashes) which can be measured in a Wallac Microbeta Scintillation Counter.
10 μl of a [^3H]cAMP-solution (0.05 μCi in H2O, 10-30 Ci/mmol) are added to 89 μl of a PDE4B-enzyme-solution (active site fragment comprising the amino acids 152-484; 0.15-0.18 ng) in assay buffer (50 mM Tris HCl pH 7.5; 8.3 mM MgCl2; 1,7 mM ethylene glyclol tetraacetic acid (EGTA); 0.25 mg/ml bovine serum albumin (BSA)) and this mixture is incubated at 30° C. for one hour
a) without the compound to be tested (in the presence of 1 μl dimethylsulfoxide (DMSO), corresponding to 1% DMSO) and b) in the presence of the compound to be tested in a concentration of 125 μM, 25 μM, 5 μM, 1 μM, 200 nM, 40 nM, 8 nM, 1.6 nM, 0.32 nM, 0.064 nM, 0.0128 nM (dilution series in 5er-steps beginning from 125 μM until 0.0128 nM, in the presence of 1% DMSO).
After this incubation the reaction is stopped by the addition of 50 μl of bead-solution (500 mg beads/35 ml H2O, 18 mM zinc sulfate). In the following 45 minutes the beads have the opportunity to form a sediment. After that the scintillations are measured in the scintillation counter. If the tested compound is able to inhibit the enzymatic activity of the PDE4B-enzyme, less [^3H]AMP depending on the concentration of the tested compound is produced and less scintillations are measurable. […] The IC50-value stands for the compound concentration at which the PDE4B enzyme activity is inhibited to a half maximal value. Therefore the lower the IC50-value is the better is the PDE4B inhibition.

Sprague Dawley (SD) rats = assay: Oral glucose tolerance test in overnight fasted male Sprague Dawley rats; format: in vivo, rat; settings: 60 min before oral glucose load 2 g/kg, versus vehicle control
Description: An oral glucose tolerance test is performed in overnight fasted male Sprague Dawley (SD) rats (RjHan:SD), with a weight of 320-350 g. A pre-dose blood sample is obtained by tail bleed. Blood glucose is measured with a glucometer, and the animals are randomized for blood glucose (n=6/group). Subsequently, the groups receive a single oral administration of either vehicle alone (0.5% aqueous hydroxyethyl-cellulose) or vehicle containing one of the PDE4 inhibitors. The animals receive an oral glucose load (2 g/kg) 60 min after compound administration. Blood glucose is measured in tail blood 15 min, 30 min, 60 min, 90 min, and 120 min after the glucose challenge. Glucose excursion is quantified by calculating the reactive glucose AUC (area under the curve). The data are presented as mean±SEM (standard error of mean). The two-sided unpaired Student t-test is used for statistical comparison of the control group and the active groups.
“Cpd. A” is the PDE4 inhibitor Example 1.35 at a dose of 1 and 3 mg/kg. “Cpd. B” is the PDE4 inhibitor Example 1.46 at a dose of 1 and 3 mg/kg. P values versus control are indicated by symbols above the bars (*, p<0.05). Cpd. A (=Example 1.35) reduces glucose excursion by 13.2 (p=0.09) and 15.0% (p=0.11) with a dose of 1 and 3 mg/kg, respectively. Cpd. […] Cpd.

pIC50 (PDE4B)	Structure (SMILES)	reduces glucose excursion (reactive glucose AUC) (Sprague Dawley (SD) rats; single oral dose 1 mg/kg) [%]	reduces glucose excursion (reactive glucose AUC) (Sprague Dawley (SD) rats; single oral dose 3 mg/kg) [%]
8.41	[O-][S+]1CCc2nc(N3CCC(Oc4ccc(Cl)cc4)CC3)nc(NC3CCOCC3)c21 (centres unmarked) [Example 1.35, {2-[4-(4-chlorophenoxy)-piperidin-1-yl]-5-oxo-6,7-dihydro-5H-5λ^4-thieno[3,2-d]pyrimidin-4-yl}-(tetrahydropyran-4-yl)-amine]	13.2	15.0
–	[O-][S+]1CCc2nc(N3CCC(c4ncc(Cl)cn4)CC3)nc(NC3(CO)CCC3)c21 (centres unmarked) [Example 1.46, (1-{2-[4-(5-Chloro-pyrimidin-2-yl)-piperidin-1-yl]-5-oxo-6,7-dihydro-5H-5λ^4-thieno[3,2-d]pyrimidin-4-yl-amino}-cyclobutyl)-methanol]	26.8	18.4
